Experimental data as given in US9394289B2, “Inhibitors of c-fms kinase” (Janssen Pharmaceutica NV, priority 2006, dated 2016).
Where two headings read alike, the source gives them in different places.

Legend:
[1] = system: mouse bone-marrow derived macrophages (BMDM); assay: CSF-1-driven mouse bone-marrow derived macrophages proliferation assay (BrDU incorporation); assay type: cell-based; settings: 30 hrs culture, read-out: mCSF driven proliferation BMDM (Mouse) IC-50
Method: CSF-1-Driven Mouse Bone-Marrow Derived Macrophages Assay
Macrophages are derived by culturing mouse bone marrow in alpha-MEM supplemented with 10% FCS and 50 ng/ml recombinant mouse CSF-1 in bacteriologic dishes. On the sixth day, macrophages are detached from dishes, washed, and resuspended to 0.05 million cells/ml in alpha-MEM containing 10% FCS. One hundred ul of cell suspension are distributed per well into 96 well culture plates. Wells are further supplemented with the addition of 50 ul media containing 15 ng/ml CSF-1, 3 uM Indomethacin, and 3× of a dilution series of test compounds. The cells are cultured for 30 hrs at 37 degrees and 5% CO2. During the final six hours, cultures are supplemented with an additional 30 ul of media containing a 1:500 dilution of bromodeoxyuridine (BrDU). At the end of the culture period, the plates are spun at 1000 RPM for 1 minute and 130 ul of media is removed with a pipet and replaced with 150 ul of fixative solution for 1 hour @ room temperature. The fixative is then dispelled from the plates and the plates allowed to air dry. Incorporation of BrDU into the fixed, dried cells is quantified using a specific ELISA.

[2] = target: c-fms (Homo sapiens (Human), UniProt P07333); assay: Autophosphorylation fluorescence polarization competition immunoassay for c-fms inhibition; assay type: biochemical; settings: averages of three independent measurements; table head says 1 nM c-fms, method says 10 nM c-fms, 1 mM ATP; read-out: 1 nM c-fms; peptide Pi assay IC-50
Method: Fluorescence Polarization Competition Immunoassay
The assay buffer used was 100 mM 4-(2-hydroxyethyl)piperazine 1-ethanesulfonic acid (HEPES), pH 7.5, 1 mM 1,4-dithio-DL-threitol (DTT), 0.01% (v/v) Tween-20. Compounds were diluted in assay buffer containing 4% dimethylsulfoxide (DMSO) just prior to the assay. To each well, 5 μL of compound were added followed by the addition of 3 μL of a mix containing 33 nM c-fms (Johnson & Johnson PRD) and 16.7 mM MgCl2 (Sigma) in assay buffer. The kinase reaction was initiated by adding 2 μL of 5 mM ATP (Sigma) in assay buffer. […] Control reactions were ran in each plate: in positive and negative control wells, assay buffer (made 4% in DMSO) was substituted for the compound; in addition, positive control wells received 1.2 μL of 50 mM ethylenediaminetetraaceticacid (EDTA).
The plates were incubated at room temperature for 45 min. At the end of the incubation, the reaction was quenched with 1.2 μL of 50 mM EDTA (EDTA was not added to the positive control wells at this point; see above). Following a 5-min incubation, each well received 10 μL of a 1:1:3 mixture of anti-phosphotyrosine antibody, 10×, PTK green tracer, 10× (vortexed), FP dilution buffer, respectively (all from PanVera, cat. #P2837). The plate was covered, incubated for 30 min at room temperature and the fluorescence polarization was read on the Analyst. The instrument settings were: 485 nm excitation filter; 530 nm emission filter; Z height: middle of well; G factor: 0.93. […] The reported IC50 values are averages of three independent measurements.

Chain of c-fms (P07333 20-972): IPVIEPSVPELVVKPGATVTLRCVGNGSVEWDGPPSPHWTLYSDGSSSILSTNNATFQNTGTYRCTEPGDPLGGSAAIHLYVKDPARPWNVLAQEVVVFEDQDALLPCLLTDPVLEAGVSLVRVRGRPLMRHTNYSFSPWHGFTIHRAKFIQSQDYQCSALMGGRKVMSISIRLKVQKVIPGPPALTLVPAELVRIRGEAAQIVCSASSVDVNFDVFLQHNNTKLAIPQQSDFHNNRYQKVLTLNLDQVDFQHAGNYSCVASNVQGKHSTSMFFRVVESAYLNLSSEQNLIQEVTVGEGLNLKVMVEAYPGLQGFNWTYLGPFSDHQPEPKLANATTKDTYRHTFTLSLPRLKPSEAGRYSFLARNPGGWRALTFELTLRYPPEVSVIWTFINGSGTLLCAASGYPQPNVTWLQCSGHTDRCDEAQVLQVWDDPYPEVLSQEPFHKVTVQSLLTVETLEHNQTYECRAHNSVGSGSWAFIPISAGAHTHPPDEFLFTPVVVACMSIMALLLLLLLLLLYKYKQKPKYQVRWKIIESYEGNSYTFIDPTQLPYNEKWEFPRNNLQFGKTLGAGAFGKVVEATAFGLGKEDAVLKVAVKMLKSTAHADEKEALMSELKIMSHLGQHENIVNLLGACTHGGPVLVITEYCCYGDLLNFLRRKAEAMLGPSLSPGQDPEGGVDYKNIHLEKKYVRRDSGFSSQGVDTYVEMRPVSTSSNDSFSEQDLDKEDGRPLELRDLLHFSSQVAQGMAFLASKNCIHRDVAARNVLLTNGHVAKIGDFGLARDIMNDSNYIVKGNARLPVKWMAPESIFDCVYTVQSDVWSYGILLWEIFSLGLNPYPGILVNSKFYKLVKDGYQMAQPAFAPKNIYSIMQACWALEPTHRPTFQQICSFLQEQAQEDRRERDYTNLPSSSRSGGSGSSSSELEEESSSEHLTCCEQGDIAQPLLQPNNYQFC

IC50 [2] [nM] | SMILES | IC50 ([1]; Mus musculus, BMDM) [nM] | IC50 [1] [nM]
0.8 | CC1(C)CC=C(c2cc(C3(C(N)=O)CCOCC3)ccc2NC(=O)c2nc(C#N)c[nH]2)CC1 [Example 24, 4-Cyano-1H-imidazole-2-carboxylic acid [4-(4-carbamoyl-tetrahydro-pyran-4-yl)-2-(4,4-dimethyl-cyclohex-1-enyl)-phenyl]-amide] | 14 | –
0.49 | CC1(C)CC=C(c2cc(C3(CO)CCOCC3)ccc2NC(=O)c2nc(C#N)c[nH]2)CC1 [Example 25, 4-Cyano-1H-imidazole-2-carboxylic acid [2-(4,4-dimethyl-cyclohex-1-enyl)-4-(4-hydroxymethyl-tetrahydro-pyran-4-yl)-phenyl]-amide] | 6.5 | –
3 | CC1(C)CC=C(c2cc(C3(CN4CCOCC4)CCOCC3)ccc2NC(=O)c2nc(C#N)c[nH]2)CC1 [Example 26, 4-Cyano-1H-imidazole-2-carboxylic acid [2-(4,4-dimethyl-cyclohex-1-enyl)-4-(4-morpholin-4-ylmethyl-tetrahydro-pyran-4-yl)-phenyl]-amide] | 5.3 | –
2.9 | N#Cc1c[nH]c(C(=O)Nc2ccc(C3(O)CCOCC3)cc2C2=CCCCC2)n1 [Example 27, 4-Cyano-1H-imidazole-2-carboxylic acid [2-cyclohex-1-enyl-4-(4-hydroxy-tetrahydro-pyran-4-yl)-phenyl]-amide] | 4.5 | –
8.4 | CN(C)C(=O)C1(c2ccc(NC(=O)c3nc(C#N)c[nH]3)c(C3=CCCCC3)c2)CCOCC1 [Example 28, 4-Cyano-1H-imidazole-2-carboxylic acid [2-cyclohex-1-enyl-4-(4dimethylcarbamoyl-tetrahydro-pyran-4-yl)-phenyl]-amide] | 28 | –
1.6 | CN(C)C(=O)C1(c2ccc(NC(=O)c3nc(C#N)c[nH]3)c(C3=CCC(C)(C)CC3)c2)CCOCC1 [Example 29, 4-Cyano-1H-imidazole-2-carboxylic acid [4-(4-dimethylcarbamoyl-tetrahydro-pyran-4-yl)-2-(4,4-dimethyl-cyclohex-1-enyl)-phenyl]-amide] | 11 | –
3.2 | C[C@@H]1CC(O)(c2ccc(NC(=O)c3nc(C#N)c[nH]3)c(C3=CCC(C)(C)CC3)c2)C[C@H](C)O1 (stereo partly drawn) [Example 30, 4-Cyano-1H-imidazole-2-carboxylic acid [2-(4,4-dimethyl-cyclohex-1-enyl)-4-(cis-4-hydroxy-cis-2,6-dimethyl-tetrahydro-pyran-4-yl)-phenyl]-amide] | – | 7
1.4 | C[C@@H]1CC(O)(c2ccc(NC(=O)c3nc(C#N)c[nH]3)c(C3=CCC(C)(C)CC3)c2)C[C@H](C)O1 (stereo partly drawn) [Example 31, 4-cyano-1H-imidazole-2-carboxylic acid [2-(4,4-dimethyl-cyclohex-1-enyl)-4-(trans-4-hydroxy-cis-2,6-dimethyl-tetrahydro-pyran-4-yl)-phenyl]-amide] | – | 3
3.2 | C[C@@H]1CC(O)(c2ccc(NC(=O)c3nc(C#N)c[nH]3)c(C3=CCC(C)(C)CC3)n2)C[C@H](C)O1 (stereo partly drawn) [Example 32, 4-Cyano-1H-imidazole-2-carboxylic acid [2-(4,4-dimethyl-cyclohex-1-enyl)-6-(4-hydroxy-Cis-2,6-dimethyl-tetrahydro-pyran-4-yl)-pyridin-3-yl]-amide] | 19 | –
3.7 | CC1(C)CC=C(c2nc(C3(O)CCOCC3)ccc2NC(=O)c2nc(C#N)c[nH]2)CC1 [Example 33, 4-Cyano-1H-imidazole-2-carboxylic acid [2-(4,4-dimethyl-cyclohex-1-enyl)-6-(4-hydroxy-tetrahydro-pyran-4-yl)-pyridin-3-yl]-amide] | 33 | –
1.5 | CS(=O)(=O)C1(c2ccc(NC(=O)c3ncc(C#N)[nH]3)c(C3=CCCCC3)c2)CCOCC1 [Example 34, 5-Cyano-1H-imidazole-2-carboxylic acid [2-cyclohex-1-enyl-4-(4-methanesulfonyl-tetrahydro-pyran-4-yl)-phenyl]-amide] | 17.2 | –
0.7 | CC(=O)N1CCC(O)(c2ccc(NC(=O)c3nc(C#N)c[nH]3)c(C3=CCC(C)(C)CC3)c2)CC1 [Example 35, 4-Cyano-1H-imidazole-2-carboxylic acid [4-(1-acetyl-4-hydroxy-piperidin-4-yl)-2-(4,4-dimethyl-cyclohex-1-enyl)-phenyl]-amide] | 5.8 | –
1.1 | CC1(C)CC=C(c2cc(C3(C#N)CCS(=O)(=O)CC3)ccc2NC(=O)c2nc(C#N)c[nH]2)CC1 [Example 87, 4-Cyano-1H-imidazole-2-carboxylic acid [4-(4-cyano-1,1-dioxo-hexahydro-1λ^6-thiopyran-4-yl)-2-(4,4-dimethyl-cyclohex-1-enyl)-phenyl]-amide] | 8.2 | –
2.4 | CC1(C)CC=C(c2cc(C3(O)CC(C)(C)OC(C)(C)C3)ccc2NC(=O)c2nc(C#N)c[nH]2)CC1 [Example 88, 4-Cyano-1H-imidazole-2-carboxylic acid [2-(4,4-dimethyl-cyclohex-1-enyl)-4-(4-hydroxy-2,2,6,6-tetramethyl-tetrahydro-pyran-4-yl)-phenyl]-amide] | 6.4 | –
13 | CON1C(C)(C)CC(O)(c2ccc(NC(=O)c3nc(C#N)c[nH]3)c(C3=CCC(C)(C)CC3)c2)CC1(C)C [Example 89, 4-Cyano-1H-imidazole-2-carboxylic acid [2-(4,4-dimethyl-cyclohex-1-enyl)-4-(4-hydroxy-1-methoxy-2,2,6,6-tetramethyl-piperidin-4-yl)-phenyl]-amide] | 20 | –
2.2 | CC1(C)CC=C(c2cc(C3(O)CC4CCC(C3)O4)ccc2NC(=O)c2nc(C#N)c[nH]2)CC1 (stereo not drawn) [Example 92, 4-Cyano-1H-imidazole-2-carboxylic acid [2-(4,4-dimethyl-cyclohex-1-enyl)-4-(3-hydroxy-8-oxa-bicyclo[3.2.1]oct-3-yl)-phenyl]-amide] | 12 | –
2.9 | CC1(C)CC=C(c2cc(C3(O)CC4(C)CCC(C)(C3)O4)ccc2NC(=O)c2nc(C#N)c[nH]2)CC1 (stereo not drawn) [Example 93, 4-Cyano-1H-imidazole-2-carboxylic acid [2-(4,4-dimethyl-cyclohex-1-enyl)-4-(3-hydroxy-1,5-dimethyl-8-oxa-bicyclo[3.2.1]oct-3-yl)-phenyl]-amide] | 8.9 | –
82 | CC1(C)CC=C(c2cc(C3(C#N)C[C@]4(C)CC[C@](C)(C3)O4)ccc2NC(=O)c2nc(C#N)c[nH]2)CC1 (stereo partly drawn) [Example 94, 4-Cyano-1H-imidazole-2-carboxylic acid [4-(3-cyano-1,5-dimethyl-8-oxa-bicyclo[3.2.1]oct-3-yl)-2-(4,4-dimethyl-cyclohex-1-enyl)-phenyl]-amide] | > 100 | –
26 | CC1(C)CC=C(c2cc(C3(C#N)CC(C)(C)OC(C)(C)C3)ccc2NC(=O)c2nc(C#N)c[nH]2)CC1 [Example 95, 4-Cyano-1H-imidazole-2-carboxylic acid [4-(4-cyano-2,2,6,6-tetramethyl-tetrahydro-pyran-4-yl)-2-(4,4-dimethyl-cyclohex-1-enyl)-phenyl]-amide] | 29 | –

SMILES | IC50 [2] [nM] | IC50 ([1]; Mus musculus, BMDM) [nM] | IC50 [1] [nM]
CC1(C)CC=C(c2cc(C3(O)CCN(CC(F)(F)F)CC3)ccc2NC(=O)c2nc(C#N)c[nH]2)CC1 [Example 90, 4-Cyano-1H-imidazole-2-carboxylic acid {2-(4,4-dimethyl-cyclohex-1-enyl)-4-[4-hydroxy-1-(2,2,2-trifluoro-ethyl)-piperidin-4-yl]-phenyl}-amide] | 6.5 | 40 | –
CC1(C)CC=C(c2cc(C3(O)CC(C)(C)N(CC(F)(F)F)C(C)(C)C3)ccc2NC(=O)c2nc(C#N)c[nH]2)CC1 [Example 91, 4-Cyano-1H-imidazole-2-carboxylic acid {2-(4,4-dimethyl-cyclohex-1-enyl)-4-[4-hydroxy-2,2,6,6-tetramethyl-1-(2,2,2-trifluoro-ethyl)-piperidin-4-yl]-phenyl}-amide] | ~210 | 61 | –
